Experimental data reported in PMC12093266, “Synergistic action of two radical SAM enzymes in the biosynthesis of thuricin CD, a two-component sactibiotic” (Chemical Science, 2025).
Numbered stars: 1 amine (or outer) side, 2 acyl side, 3 side chain; on linkers, the order of the positions; unused ones are H or OH. Bridge positions count the residues as written; N and C are the ends. Square brackets hold non-standard residues; d marks the D form. Peptide text beside a SMILES is read from it. X3 = O=C([C@@](Cc1ccc(O)cc1)(N[*:1])[*:3])[*:2]; X5 = C[C@@H](O)[C@@](N[*:1])(C(=O)[*:2])[*:3]; X1 = C[C@@H](O)[C@](N[*:1])(C(=O)[*:2])[*:3]; X4 = O=C([C@](CO)(N[*:1])[*:3])[*:2]; X2 = C[C@](N[*:1])(C(=O)[*:2])[*:3]

How the values were obtained:
[1] = tested on: Bacillus cereus; experiment: Disk diffusion susceptibility test; format: cell-based; conditions: 5 μL of 100 μM peptide (each) on filter paper, BHI agar, 30 °C, 15-20 h
Experimental: In vitro susceptibility test
Briefly, the liquid Brain Heart Infusion (BHI) agar (3.2 % BHI, 1.5% agar) was cooled to 42 °C and seeded with 100 μL of dense overnight culture (approximately 10 8-109 CFU mL -1) of Bacillus cereus. […] Kanamycin and 30% isopropanol were used
Spot 4: 5 μL 0.1 mg/ml kanamycin; Spot 5: 5 μL 30% isopropanol.

[2] = tested on: Bacillus cereus; format: cell-based; conditions: B. cereus in LB, 96-well plate, serial dilution, 30 °C, 16 h, OD600; lowest concentration with <10% OD increase over kanamycin well; HPLC-purified peptides in 30% isopropanol; '>' = no inhibition observed at that concentration
Experimental: To test whether the thuricin CD variant obtained in E. coli was bioactive, we performed disk diffusion susceptibility tests with trnα′ and trnβ′ using Bacillus cereus as a test strain. […]
the elution fraction (1: 200 (v/v) ratio), and the resulting solution was then kept overnight for digestion at 4 °C. The resulting solution was heat-inactivated at 95 °C for 10 min followed by freezing at -80 °C for 1 h, and was subjected to centrifugation (13000 × g for 15 min at 4 °C) to remove any precipitates. The resulting solutions containing TrnA or TrnB were directly used in downstream analysis or frozen at -80 °C […]
Production of trnα’ and trnβ’
The modified TrnA and TrnB solutions were mixed with GluC (2 mg/ml stock solution) in a 50:1 (v/v) ratio and the proteolytic reaction was proceeded at room temperature for 2hr. The reaction mixture was subsequently quenched by methanol, and was lyophilized after centrifugation to remove any protein precipitate. The resulting sample was then dissolved in 30% isopropanol and injected onto a reverse phase Phenomenex Aeris PEPTIDE XB-C18 column (250 x 10 mm, 5 μm). […]
as a positive and negative controls, respectively. […] The OD600 was read on a SP-Max 2300A plate reader. […]

Row | Structure (SMILES) | inhibition in disk diffusion test [1] | minimal inhibition concentration (MIC) [2]
1 | CC[C@H](C)[C@H](N)C(=O)NCC(=O)NCC(=O)N[C@@H](CC(N)=O)C(=O)N[C@@H](C)C(=O)N[C@@H](C)C(=O)N[C@H]1CS[C@](C(=O)N[C@@H](CC(C)C)C(=O)NCC(=O)O)([C@@H](C)O)NC(=O)[C@H](Cc2ccccc2)NC(=O)[C@H](C)NC(=O)[C@]2([C@@H](C)O)NC(=O)CNC(=O)[C@H](C(C)C)NC(=O)[C@H](CC(C)C)NC(=O)[C@]3(CO)NC(=O)CNC(=O)[C@H]([C@@H](C)CC)NC(=O)CNC(=O)[C@H](CCC(=O)O)NC(=O)[C@H](CO)NC(=O)[C@H]([C@@H](C)CC)NC(=O)[C@H](C(C)C)NC(=O)[C@H](CS3)NC(=O)[C@H](CO)NC(=O)CNC(=O)[C@H]([C@@H](C)CC)NC(=O)[C@H](CS2)NC(=O)CNC(=O)[C@H]([C@@H](C)CC)NC(=O)[C@H](C(C)C)NC1=O [trnα′] (H-IGGNAACVIGCIGSCVISEGIG[X4]LVG[X1]AF[X5]LG-OH; thioether 7-30, 11-27, 15-23; N-terminus and C-terminus assumed) | no activity | > 50 µM
2 | CC(C)C[C@H](NC(=O)[C@H](Cc1ccccc1)NC(=O)[C@@]1(Cc2ccc(O)cc2)NC(=O)[C@H](CO)NC(=O)[C@H](C)NC(=O)[C@]2(C)NC(=O)[C@H](C)NC(=O)[C@H](Cc3ccccc3)NC(=O)[C@H](CCC(=O)O)NC(=O)[C@]3([C@@H](C)O)NC(=O)CNC(=O)[C@H](C(C)C)NC(=O)CNC(=O)CNC(=O)[C@H](CO)NC(=O)[C@H](C)NC(=O)[C@H](CC(C)C)NC(=O)[C@H](CS3)NC(=O)[C@H](C(C)C)NC(=O)[C@H]([C@@H](C)O)NC(=O)CNC(=O)[C@H](CS2)NC(=O)[C@H](C)NC(=O)CNC(=O)[C@H](C(C)C)NC(=O)[C@@H](NC(=O)[C@H](C)NC(=O)[C@@H](NC(=O)[C@H](Cc2c[nH]c3ccccc23)NC(=O)CNC(=O)CNC(=O)[C@@H](N)C(C)C)C(C)C)CS1)C(=O)O [trnβ′] (H-VGGWVACVGACGTVCLASGGVG[X1]EFA[X2]AS[X3]FL-OH; thioether 7-30, 11-27, 15-23; N-terminus and C-terminus assumed) | no activity | > 50 µM
